# Legend:
# [1] = immobilized in a hydrogel matrix; FIG. 3 in Werner et al.; cited from earlier work
# [2] = pH titration of luminescence intensity of the optical sensor disc; assay type: physicochemical
# Method: The indicator layer casting solution was coated onto a polyester foil (Melinex foil, ICI America) and the solvent was evaporated. The final dry thickness of the indicator layer was approximately 10 μm. Then, the overcoat layer casting solution was coated onto the indicator layer and the solvent was evaporated. The final a dry thickness of the overcoat layer was about 5 μm. Then, a small sensor disc (2.5 cm diameter) was punched out and soaked in buffer for at least 17 h for activation.
# Aliquots of solutions A and B were mixed in appropriate rations to obtain eleven pH buffer solutions of pH 2.67, 3.66, 5.41, 6.35, 6.74, 7.28, 7.76, 8.29, 8.78, 9.81, 10.79, respectively. The pHs were determined at 37° C. with a standard glass electrode.
# The sensor discs thus obtained were used in the measuring set-up represented schematically in FIG. 2. In FIG. 2, the reference character S denotes a portion of the sensor disc. […]
# [formula] L denotes luminescence intensity and Lm denotes maximum luminescence intensity. […] (ON intensity=luminescence intensity of the protonated species (i.e., in FIG. 3 the intensity at pHs<5), OFF intensity=intensity of the deprotonated species (i.e., in FIG. 3 the intensity at pHs>10).
"OFF intensity as percentage of ON intensity ([2]; ON = protonated species (pH<5), OFF = deprotonated species (pH>10)) [%]","pK value ([2]; immobilized on PVP beads dispersed in hydrophilic polymer layer, 37° C., buffers pH 2.67-10.79, least squares fit of intensity vs pH, excitation 480 nm, emission 520 nm cut-off)",Compound,pK [1]
–,–,"CC1=CC(C)=[N+]2C1=C(c1ccc(N(C)C)cc1)c1c(C)cc(C)n1[B-]2(F)F [1,3,5,7-tertramethyl-8-(4-dimethylamino)-4-difluorobora-3a,4a-diaza(s)-indacene]",3.3
5,7.25,O=C(O)c1ccc(CN2C(=O)c3cccc4c(NCCc5cc(Cl)c(O)c(Cl)c5)ccc(c34)C2=O)cc1 [Dye A41],–
